ChEMBL document CHEMBL1201862, “PubChem BioAssay data set” (2004)
The source made the active and inactive calls.

Legend:
[1] = viability of PTEN-deleted HCT116 cells – cell-based, HCT116 PTEN knockout, dose response (AID 1047); format: functional;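 also: HCT116 colon tumor cells with PTEN knocked out; cells exposed to compound for 60 hours before readout; potency for loss of cell viability measured by luminescence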
[2] = Luminescence Cell-Based Dose Confirmation HTS to Identify Activators of 5'UTR Stem-Loop Driven Alpha-Synuclein mRNA Translation in H4 Neuroglioblastoma Cells. [Related pubchem assays: 1829 (Project Summary), 1814 (Primary HTS)]; format: functional
[3] = target: Protein-tyrosine kinase 2-beta (Homo sapiens, UniProt Q14289);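 also: potency of inhibitors of PYK2 kinase phosphorylation of poly-GT substrate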
Sequence of Protein-tyrosine kinase 2-beta (Q14289 whole entry): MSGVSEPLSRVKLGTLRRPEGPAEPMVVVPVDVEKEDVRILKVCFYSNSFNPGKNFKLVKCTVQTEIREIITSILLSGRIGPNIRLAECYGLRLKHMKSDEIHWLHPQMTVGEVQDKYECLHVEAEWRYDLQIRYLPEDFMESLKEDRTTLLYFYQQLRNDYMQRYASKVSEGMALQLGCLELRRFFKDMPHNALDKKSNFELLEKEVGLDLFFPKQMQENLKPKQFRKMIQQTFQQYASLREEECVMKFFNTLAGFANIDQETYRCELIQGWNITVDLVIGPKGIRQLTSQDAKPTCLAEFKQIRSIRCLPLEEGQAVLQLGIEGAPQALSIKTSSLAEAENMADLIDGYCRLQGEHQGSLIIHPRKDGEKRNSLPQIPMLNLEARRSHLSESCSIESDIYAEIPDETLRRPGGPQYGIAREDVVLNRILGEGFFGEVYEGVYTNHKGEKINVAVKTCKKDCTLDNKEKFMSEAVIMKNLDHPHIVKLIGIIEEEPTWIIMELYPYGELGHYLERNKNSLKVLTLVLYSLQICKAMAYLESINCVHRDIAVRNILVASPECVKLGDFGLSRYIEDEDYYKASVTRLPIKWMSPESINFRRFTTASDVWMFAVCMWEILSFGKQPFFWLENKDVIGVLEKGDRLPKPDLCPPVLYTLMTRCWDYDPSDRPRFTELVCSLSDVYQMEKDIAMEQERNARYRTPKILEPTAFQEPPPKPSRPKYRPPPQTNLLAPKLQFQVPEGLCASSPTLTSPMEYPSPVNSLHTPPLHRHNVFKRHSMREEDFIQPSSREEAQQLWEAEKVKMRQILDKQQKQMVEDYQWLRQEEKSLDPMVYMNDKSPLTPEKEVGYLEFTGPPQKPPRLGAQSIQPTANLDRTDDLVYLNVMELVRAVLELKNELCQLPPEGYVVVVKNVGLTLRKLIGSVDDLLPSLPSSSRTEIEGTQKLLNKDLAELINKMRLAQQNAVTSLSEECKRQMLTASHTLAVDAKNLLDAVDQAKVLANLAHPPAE

X-box-binding protein 1 = target: T1, X-box-binding protein 1 (Homo sapiens, UniProt P17861); format: functional, Cricetulus griseus;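 also: confirmatory dose-response counter-screen serving a CHOP assay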
T1 sequence (P17861 whole entry): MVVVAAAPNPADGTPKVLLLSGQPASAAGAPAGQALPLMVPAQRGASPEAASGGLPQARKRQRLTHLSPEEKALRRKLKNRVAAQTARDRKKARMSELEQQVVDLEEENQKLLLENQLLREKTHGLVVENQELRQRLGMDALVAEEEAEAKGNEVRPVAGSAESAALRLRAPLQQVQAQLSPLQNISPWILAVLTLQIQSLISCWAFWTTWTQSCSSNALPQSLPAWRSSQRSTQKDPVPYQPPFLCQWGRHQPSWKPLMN

[4] = Luminescence Cell-Based Dose Response HTS to Identify Activators of Luciferase Translation or Activity in H4 […] Cells. [Related pubchem assays: 1829 (Project Summary), 1814 (Primary HTS)]; format: functional
[5] = Cytotoxicity screening for potential Inhibitors of Bacterial Capsule Biogenesis. [Related pubchem assays (depositor defined):AID488970]; format: functional
[6] = target: T2, Heat shock 70 kDa protein 1A (Homo sapiens, UniProt P0DMV8); experiment: small-molecule inhibition of Hsp70 – biochemical, TR-FRET (AID 786)
T2 sequence (P0DMV8 whole entry): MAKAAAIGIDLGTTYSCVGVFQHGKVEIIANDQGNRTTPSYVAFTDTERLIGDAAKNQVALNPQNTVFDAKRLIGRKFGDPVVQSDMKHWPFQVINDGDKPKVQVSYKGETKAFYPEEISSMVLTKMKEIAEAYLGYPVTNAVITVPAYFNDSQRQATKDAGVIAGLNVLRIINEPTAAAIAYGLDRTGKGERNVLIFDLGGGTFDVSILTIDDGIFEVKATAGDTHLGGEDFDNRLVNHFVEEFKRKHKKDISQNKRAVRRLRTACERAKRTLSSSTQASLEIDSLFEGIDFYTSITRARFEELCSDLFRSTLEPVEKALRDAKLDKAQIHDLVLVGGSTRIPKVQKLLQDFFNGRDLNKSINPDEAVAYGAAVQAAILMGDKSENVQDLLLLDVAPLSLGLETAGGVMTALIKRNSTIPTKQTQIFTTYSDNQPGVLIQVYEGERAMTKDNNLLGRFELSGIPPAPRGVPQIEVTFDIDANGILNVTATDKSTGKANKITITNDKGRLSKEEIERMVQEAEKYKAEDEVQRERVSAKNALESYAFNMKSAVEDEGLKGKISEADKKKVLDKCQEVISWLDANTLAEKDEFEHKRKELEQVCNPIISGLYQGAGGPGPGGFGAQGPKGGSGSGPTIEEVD

[7] = viability of HCT116 lacking mutant beta-catenin – cell-based, human colon tumor, dose response (AID 1045); format: functional;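 also: HCT116 colon tumor cells with beta catenin knocked out; cells exposed to compound for 60 hours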
[8] = target: T2, Heat shock 70 kDa protein 1A; experiment: small molecules displacing fluorescent ligand from Hsp70 – biochemical, fluorescence polarization, primary screen (AID 583)
H4 = experiment: Luminescence Cell-Based Dose Response HTS to Identify Activators of 5'UTR Stem-Loop Driven Prion Protein mRNA Translation in H4 Neuroglioblastoma Cells. [Related pubchem assays: 1829 (Project Summary), 1814 (Primary HTS)]; format: functional; conditions: Homo sapiens
J774.A1 = experiment: Confirmation of image-based Screening Assay for Inhibitors of Phagocytosis. [Related pubchem assays (depositor defined):AID1029, AID1643]; format: functional, cell-based; conditions: Mus musculus
[9] = HEK-293T viability loss after treatment – luminescence, T-cell screen hits, cytotoxicity control for TCR NF-kB inhibitor project, dose response (AID 489026); format: functional, cell-based;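 also: cells exposed to compound about 14 hours before the viability readout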
[10] = target: NACHT, LRR and PYD domains-containing protein 3 (Homo sapiens, UniProt Q96P20); experiment: NALP3 inhibitors in yeast, dose response, luminescent (AID 488799); format: functional
Sequence of NACHT, LRR and PYD domains-containing protein 3 (Q96P20 whole entry, the tested form may be a part): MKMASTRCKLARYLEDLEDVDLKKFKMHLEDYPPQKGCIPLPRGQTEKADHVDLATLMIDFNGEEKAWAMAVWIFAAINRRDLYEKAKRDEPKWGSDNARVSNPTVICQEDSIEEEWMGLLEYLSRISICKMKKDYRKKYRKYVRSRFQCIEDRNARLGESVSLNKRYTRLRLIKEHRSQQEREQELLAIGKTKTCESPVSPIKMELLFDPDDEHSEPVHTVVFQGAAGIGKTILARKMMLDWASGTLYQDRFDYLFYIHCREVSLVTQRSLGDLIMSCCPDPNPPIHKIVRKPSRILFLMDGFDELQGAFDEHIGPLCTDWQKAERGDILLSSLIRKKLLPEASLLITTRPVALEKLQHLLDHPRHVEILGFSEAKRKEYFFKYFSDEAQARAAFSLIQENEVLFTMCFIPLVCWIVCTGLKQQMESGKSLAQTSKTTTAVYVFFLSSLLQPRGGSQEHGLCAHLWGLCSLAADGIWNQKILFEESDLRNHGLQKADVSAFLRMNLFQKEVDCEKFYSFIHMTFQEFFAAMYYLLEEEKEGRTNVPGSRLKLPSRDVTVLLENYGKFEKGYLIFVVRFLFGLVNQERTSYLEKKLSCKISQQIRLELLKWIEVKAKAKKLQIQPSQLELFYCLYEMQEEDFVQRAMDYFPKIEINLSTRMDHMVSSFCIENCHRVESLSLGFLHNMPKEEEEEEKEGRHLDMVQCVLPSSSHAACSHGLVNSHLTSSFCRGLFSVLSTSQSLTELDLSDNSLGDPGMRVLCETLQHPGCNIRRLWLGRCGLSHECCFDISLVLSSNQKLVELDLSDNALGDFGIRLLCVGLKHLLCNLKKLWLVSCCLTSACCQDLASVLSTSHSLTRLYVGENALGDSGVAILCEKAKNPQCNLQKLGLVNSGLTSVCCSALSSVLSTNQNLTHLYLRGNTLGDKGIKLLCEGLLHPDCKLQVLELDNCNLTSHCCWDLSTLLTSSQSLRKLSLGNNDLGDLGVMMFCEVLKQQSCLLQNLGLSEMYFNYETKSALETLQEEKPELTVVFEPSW

[11] = luciferase reporter signal suppression in cells – H4 neuroglioma cells, luminescence, dose response (AID 1990); format: functional, cell-based
[12] = microbe, parasite or virus in culture; format: functional; conditions: Mycobacterium tuberculosis
[13] = NIH-3T3 fibroblast cytotoxicity, dose response, cytotoxicity control, cell-based, fluorescence, Alamar Blue, secondary assay (AID 2327); format: functional;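 also: NIH-3T3 mouse fibroblasts cultured with fluconazole at 8 µg/mL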
BJ [14] = experiment: BJ-TERT-LT-ST fibroblast viability loss – cell-based, RAS-independent, luminescence, dose response (AID 1935); format: functional; conditions: Homo sapiens;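 also: BJ fibroblasts immortalized with TERT plus LT and ST oncogenes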
[15] = Luminescence Cell-Based Dose Response HTS to Identify Inhibitors of 5'UTR Stem-Loop Driven Prion Protein mRNA Translation in H4 Neuroglioblastoma Cells. [Related pubchem assays: 1827 (Project Summary), 1813 (Primary HTS)]; format: functional
[16] = fluconazole-exposed Candida albicans growth modulators – fluorescence, retest, confirmation (AID 2467); format: functional, cell-based
INS1 = experiment: INS-1E survival protection against cytokine death – cell-based, luminescence, retest, dose response (AID 449756); format: functional; conditions: Rattus norvegicus, INS1;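 also: cell death triggered by IL-1 beta plus TNF-alpha plus IFN-gamma mixture; protective hits raise ATP signal compared with cytokine alone wells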
[17] = target: Mitochondrial peptide methionine sulfoxide reductase (Bos taurus, UniProt P54149); experiment: Absorbance-based biochemical high throughput dose response assay for activators of Methionine sulfoxide reductase A (MsrA).; format: functional
Sequence of Mitochondrial peptide methionine sulfoxide reductase (P54149 whole entry): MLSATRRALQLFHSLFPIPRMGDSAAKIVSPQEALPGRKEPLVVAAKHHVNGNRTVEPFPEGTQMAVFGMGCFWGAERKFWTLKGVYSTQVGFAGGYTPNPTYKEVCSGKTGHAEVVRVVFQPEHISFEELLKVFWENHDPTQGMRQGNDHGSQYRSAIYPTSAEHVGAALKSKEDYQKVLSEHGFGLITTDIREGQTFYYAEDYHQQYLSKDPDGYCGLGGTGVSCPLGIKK

[18] = alpha-synuclein stem-loop luciferase translation blockers – H4 neuroglioma cells, luminescence, confirmation (AID 1988); format: functional, cell-based
BJ [19] = experiment: BJ-TERT fibroblast viability loss – cell-based, RAS-independent, luminescence, dose response (AID 1933); format: functional; conditions: Homo sapiens
BJ [20] = experiment: cells; format: functional, cell-based; conditions: Homo sapiens
[21] = DRD fibroblast viability loss – cell-based, non-viral oncogenic, luminescence, dose response (AID 1934); format: functional; conditions: Homo sapiens
[22] = target: Phosphoethanolamine/phosphocholine phosphatase (Homo sapiens, UniProt Q8TCT1); experiment: SAR assay for compounds that inhibit PHOSPHO1. [Related pubchem assays (depositor defined):AID1545, AID1565, AID1574]
Sequence of Phosphoethanolamine/phosphocholine phosphatase (Q8TCT1 whole entry): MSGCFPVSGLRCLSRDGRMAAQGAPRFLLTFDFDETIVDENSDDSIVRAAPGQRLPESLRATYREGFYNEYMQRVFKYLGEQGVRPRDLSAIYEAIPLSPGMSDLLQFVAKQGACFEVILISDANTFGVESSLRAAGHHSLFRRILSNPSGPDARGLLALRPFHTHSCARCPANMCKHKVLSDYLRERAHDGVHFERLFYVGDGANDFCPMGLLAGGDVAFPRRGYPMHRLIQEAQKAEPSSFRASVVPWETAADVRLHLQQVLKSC

[23] = target: T3, Mannose-6-phosphate isomerase (Homo sapiens, UniProt P34949); experiment: Confirmation of compounds inhibiting phosphomannose isomerase (PMI) via a fluorescence intensity assay using a high concentration of mannose 6-phosphate. [Related pubchem assays (depositor defined):AID1209, AID1220, AID1545, AID1553, AID1620]
T3 sequence (P34949 whole entry): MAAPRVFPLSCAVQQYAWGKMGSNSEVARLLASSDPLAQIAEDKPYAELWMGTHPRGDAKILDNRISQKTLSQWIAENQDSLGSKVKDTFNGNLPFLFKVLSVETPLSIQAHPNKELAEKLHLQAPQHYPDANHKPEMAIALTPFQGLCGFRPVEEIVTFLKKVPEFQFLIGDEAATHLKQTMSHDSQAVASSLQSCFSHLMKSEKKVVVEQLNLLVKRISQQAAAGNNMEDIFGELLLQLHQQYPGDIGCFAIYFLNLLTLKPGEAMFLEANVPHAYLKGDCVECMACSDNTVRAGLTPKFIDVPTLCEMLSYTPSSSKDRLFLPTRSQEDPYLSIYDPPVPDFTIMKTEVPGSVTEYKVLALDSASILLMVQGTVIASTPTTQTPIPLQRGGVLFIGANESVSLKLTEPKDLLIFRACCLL

[24] = target: T4, Alkaline phosphatase, tissue-nonspecific isozyme (Homo sapiens, UniProt P05186); experiment: potency against alkaline phosphatase TNAP – biochemical, luminescent, dose response, SAR follow-up (AID 1056)
T4 sequence (P05186 whole entry): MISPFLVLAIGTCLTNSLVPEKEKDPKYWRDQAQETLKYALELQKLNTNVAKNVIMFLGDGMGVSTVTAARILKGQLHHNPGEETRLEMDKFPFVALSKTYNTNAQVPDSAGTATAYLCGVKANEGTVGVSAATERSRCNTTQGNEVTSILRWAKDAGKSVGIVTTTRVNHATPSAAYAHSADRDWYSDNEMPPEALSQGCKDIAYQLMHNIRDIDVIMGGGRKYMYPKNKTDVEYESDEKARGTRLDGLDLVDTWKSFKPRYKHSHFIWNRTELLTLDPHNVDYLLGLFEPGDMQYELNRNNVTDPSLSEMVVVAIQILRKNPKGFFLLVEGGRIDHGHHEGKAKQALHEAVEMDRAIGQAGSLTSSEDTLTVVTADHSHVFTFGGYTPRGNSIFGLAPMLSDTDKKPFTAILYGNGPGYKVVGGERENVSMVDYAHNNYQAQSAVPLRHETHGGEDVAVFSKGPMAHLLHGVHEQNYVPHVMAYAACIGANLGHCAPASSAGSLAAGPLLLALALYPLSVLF

[25] = target: T3, Mannose-6-phosphate isomerase; experiment: phosphomannose isomerase inhibition – biochemical, fluorescence intensity, confirmation (AID 1535)
Phosphomannomutase 2 = target: T5, Phosphomannomutase 2 (Homo sapiens, UniProt O15305); experiment: Counter screen SAR assay for PMM2 inhibitors via a fluorescence intensity assay. [Related pubchem assays (depositor defined):AID1545, AID1574]
T5 sequence (O15305 whole entry): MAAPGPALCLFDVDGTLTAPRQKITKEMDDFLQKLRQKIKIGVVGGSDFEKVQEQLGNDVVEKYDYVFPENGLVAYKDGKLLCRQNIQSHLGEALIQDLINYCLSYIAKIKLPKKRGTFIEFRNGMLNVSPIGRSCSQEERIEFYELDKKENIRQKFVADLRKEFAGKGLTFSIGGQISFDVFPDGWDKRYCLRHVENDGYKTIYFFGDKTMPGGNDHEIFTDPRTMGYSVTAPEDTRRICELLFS

[26] = target: G-protein coupled receptor 55 (Homo sapiens, UniProt Q9Y2T6); experiment: SAR analysis of selective Agonists of GPR55 using an Image-Based Assay - Set 2. [Related pubchem assays (depositor defined):AID1961, AID1965]; format: functional
Sequence of G-protein coupled receptor 55 (Q9Y2T6 whole entry): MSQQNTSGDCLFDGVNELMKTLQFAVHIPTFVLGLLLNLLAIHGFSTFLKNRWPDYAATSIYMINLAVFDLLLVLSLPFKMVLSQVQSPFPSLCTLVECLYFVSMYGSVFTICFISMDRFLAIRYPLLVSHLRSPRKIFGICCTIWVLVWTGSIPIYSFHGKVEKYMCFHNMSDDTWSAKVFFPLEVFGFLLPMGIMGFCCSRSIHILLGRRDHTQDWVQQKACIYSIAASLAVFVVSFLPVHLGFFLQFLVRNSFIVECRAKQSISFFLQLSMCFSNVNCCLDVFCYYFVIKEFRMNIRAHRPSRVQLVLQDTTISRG

Cannabinoid receptor 2 [27] = target: T6, Cannabinoid receptor 2 (Homo sapiens, UniProt P34972); experiment: SAR analysis of agonists of the Cannabinoid Receptor 2 using an Image-Based Assay - Set 2. [Related pubchem assays (depositor defined):AID1961, AID1965]; format: functional
T6 sequence (P34972 whole entry): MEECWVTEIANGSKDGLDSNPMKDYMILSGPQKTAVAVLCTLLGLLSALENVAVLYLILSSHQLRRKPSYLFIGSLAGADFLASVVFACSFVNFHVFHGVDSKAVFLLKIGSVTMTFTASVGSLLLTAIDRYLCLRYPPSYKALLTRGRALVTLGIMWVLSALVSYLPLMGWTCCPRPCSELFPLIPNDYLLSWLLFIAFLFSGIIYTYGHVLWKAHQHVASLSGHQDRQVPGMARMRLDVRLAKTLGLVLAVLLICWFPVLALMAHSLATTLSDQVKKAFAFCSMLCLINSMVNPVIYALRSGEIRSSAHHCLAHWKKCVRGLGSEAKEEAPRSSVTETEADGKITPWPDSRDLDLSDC

[28] = target: T7, G-protein coupled receptor 35 (Homo sapiens, UniProt Q9HC97); experiment: SAR analysis of Antagonists of the GPR35 Receptor using an Image-Based Assay - Set 4. [Related pubchem assays (depositor defined):[…]]; format: functional
T7 sequence (Q9HC97 whole entry): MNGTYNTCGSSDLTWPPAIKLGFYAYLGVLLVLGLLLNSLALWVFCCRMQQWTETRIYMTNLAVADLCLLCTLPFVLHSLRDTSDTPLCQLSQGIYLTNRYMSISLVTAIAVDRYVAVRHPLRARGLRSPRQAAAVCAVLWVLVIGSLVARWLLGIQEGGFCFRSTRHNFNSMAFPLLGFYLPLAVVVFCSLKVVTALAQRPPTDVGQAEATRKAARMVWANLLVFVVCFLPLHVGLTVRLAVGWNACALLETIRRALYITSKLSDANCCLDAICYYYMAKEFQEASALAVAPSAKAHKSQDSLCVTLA

[29] = target: T7, G-protein coupled receptor 35; experiment: SAR analysis of Agonists of the GPR35 Receptor using an Image-Based Assay - Set 3. [Related pubchem assays (depositor defined):AID1961, AID1965]; format: functional
Cannabinoid receptor 2 [30] = target: T6, Cannabinoid receptor 2; experiment: SAR analysis of antagonists of the Cannabinoid Receptor 2 using an Image-Based Assay - Set 2. [Related pubchem assays (depositor defined):AID1961, AID1965]; format: functional
Cannabinoid receptor 1 [31] = target: T8, Cannabinoid receptor 1 (Homo sapiens, UniProt P21554); experiment: SAR analysis of antagonists of the Cannabinoid Receptor 1 using an Image-Based Assay - Set 3. [Related pubchem assays (depositor defined):AID1961, AID1965]; format: functional
T8 sequence (P21554 whole entry): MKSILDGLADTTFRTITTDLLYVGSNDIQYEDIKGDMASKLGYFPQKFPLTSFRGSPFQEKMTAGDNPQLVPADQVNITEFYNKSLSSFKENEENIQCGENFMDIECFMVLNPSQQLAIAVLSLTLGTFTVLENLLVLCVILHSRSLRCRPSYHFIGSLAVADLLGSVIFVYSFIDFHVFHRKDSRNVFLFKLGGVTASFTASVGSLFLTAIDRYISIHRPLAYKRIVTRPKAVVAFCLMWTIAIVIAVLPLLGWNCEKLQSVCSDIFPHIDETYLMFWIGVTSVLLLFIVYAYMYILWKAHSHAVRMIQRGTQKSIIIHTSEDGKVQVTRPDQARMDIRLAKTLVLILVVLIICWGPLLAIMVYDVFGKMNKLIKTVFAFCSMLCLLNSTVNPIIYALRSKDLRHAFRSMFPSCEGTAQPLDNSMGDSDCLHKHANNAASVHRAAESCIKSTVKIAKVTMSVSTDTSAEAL

Cannabinoid receptor 1 [32] = target: T8, Cannabinoid receptor 1; experiment: SAR analysis of agonists of the Cannabinoid Receptor 1 using an Image-Based Assay - Set 3. [Related pubchem assays (depositor defined):AID1961, AID1965]; format: functional

O=C(ONc1ccc(N=NC(=O)c2ccccc2O)cc1)c1ccccc1
EC50 [1]: 20 µM (active) | EC50 [2]: > 120 µM (not active) | IC50 [3]: 5.49 µM (active) | Absolute IC50 (XBP1) (X-box-binding protein 1): 10 µM | EC50 [4]: 10.1 µM (active) | CC50 [5]: 45.1 µM (active) | IC50 [6]: > 100 µM (not active) | EC50 [7]: 21.1 µM (active) | IC50 [8]: 11.7 µM (active) | EC50 (H4): 28.8 µM (active)

CCN(CC)c1ccc(NC(=O)c2cc(OC)cc(OC)c2)c(C)c1
IC50 (J774.A1): 0.13 µM (active) | IC50 [9]: > 80 µM (inactive)

CCN(CC)c1ccc2nc3ccccc3[n+](CC)c2c1
IC50 [10]: 14.3 µM (active) | EC50 [11]: 11.2 µM (active) | CC50 [12]: > 40 µM (active) | EC50 [13]: 96.1 µM (active) | EC50 (BJ [14]): > 150 µM (inconclusive) | EC50 [15]: 25.9 µM (active) | EC50 [16]: 0.686 µM (active) | AC50 (INS1): 0.602 µM (active) | EC50 [17]: 19.2 µM (inactive) | EC50 [18]: 9.49 µM (active) | EC50 (BJ [19]): 16.9 µM (active) | EC50 (BJ [20]): 23.6 µM (active) | EC50 [21]: 15.2 µM (active) | IC50 [9]: 48.8 µM (inactive)

Cc1ccc(C)c(-n2sc3ccccc3c2=O)c1
IC50 [22]: 5.04 µM (inactive) | IC50 [23]: 5.51 µM (active) | IC50 [24]: > 100 µM (inactive) | IC50 [25]: 1.67 µM (active) | IC50 (Phosphomannomutase 2): 17.9 µM (active)

O=C(Nc1cc(S(=O)(=O)N2CCOCC2)ccc1Cl)c1cc2c(s1)CCCC2
EC50 [26]: 0.779 µM (active) | EC50 (Cannabinoid receptor 2 [27]): > 32 µM (inactive) | IC50 [28]: > 32 µM (inactive) | EC50 [29]: > 32 µM (inactive) | IC50 (Cannabinoid receptor 2 [30]): > 32 µM (inactive) | IC50 (Cannabinoid receptor 1 [31]): > 32 µM (inactive) | EC50 (Cannabinoid receptor 1 [32]): 7.87 µM (active)
